Where two headings read alike, the source gives them in different places.

One data set has as its system HCT116 cells. Briefly: MTT antiproliferative assay, HCT116.
Another data set has as its system MCF-7 cells. Briefly: MTT antiproliferative assay, MCF-7.
The target of a further data set is HDAC1 (Homo sapiens, UniProt Q13547). As to the kind of experiment: HTRF enzyme inhibition assay, HDAC1. Conditions: for inhibition at 1 µM: read-out: % enzyme inhibition HDAC; for % enzyme inhibition HDAC: compound at 1 μM, HTRF, method names HDAC1 protein.
A further data set concerns the target T1, GST-tagged MDM2 (Homo sapiens, UniProt Q00987).
T1 construct: purchased Cisbio Co. Ltd
Briefly: HTRF enzyme inhibition assay, MDM2. The format is biochemical. Particulars: compound at 1 μM. As for the experimental part: The enzymatic assay of test compounds is using the HTRF-based method provided by Cisbio Co. Ltd. In brief, the target compounds to be tested were prepared into samples with a concentration of 1 μM, which was added to GST-tagged MDM2 and HDAC1 proteins, respectively, then biotinylated substrate p53 peptide and HTRF detection reagents were added. The data obtained were processed by the ratio method, and the inhibition rates of MDM2 and HDAC1 were calculated. The detailed experimental procedures are according to the manufacturer’s protocols.

Another data set has as its system A431 cells. As to the kind of experiment: MTT antiproliferative assay, A431.
The mark [1] stands for this setting: Homo sapiens, HCT-116, read-out: IC50 HCT116.
The mark [2] stands for this setting: Homo sapiens, MCF7, read-out: IC50 MCF-7.
Where [3] appears, read: Homo sapiens, A-431, read-out: IC50 A431.
The mark [4] stands for this setting: read-out: IC50 HCT116, MTT, HCT116 human colorectal cancer, mean ± standard of at least three replicates.
The mark [5] stands for this setting: read-out: IC50 MCF-7, MTT, MCF-7 human breast cancer, mean ± standard of at least three replicates.
Setting [6] is: read-out: IC50 A431, MTT, A431 human epidermal carcinoma, mean ± standard of at least three replicates.

Chain of HDAC1 (Q13547 whole entry): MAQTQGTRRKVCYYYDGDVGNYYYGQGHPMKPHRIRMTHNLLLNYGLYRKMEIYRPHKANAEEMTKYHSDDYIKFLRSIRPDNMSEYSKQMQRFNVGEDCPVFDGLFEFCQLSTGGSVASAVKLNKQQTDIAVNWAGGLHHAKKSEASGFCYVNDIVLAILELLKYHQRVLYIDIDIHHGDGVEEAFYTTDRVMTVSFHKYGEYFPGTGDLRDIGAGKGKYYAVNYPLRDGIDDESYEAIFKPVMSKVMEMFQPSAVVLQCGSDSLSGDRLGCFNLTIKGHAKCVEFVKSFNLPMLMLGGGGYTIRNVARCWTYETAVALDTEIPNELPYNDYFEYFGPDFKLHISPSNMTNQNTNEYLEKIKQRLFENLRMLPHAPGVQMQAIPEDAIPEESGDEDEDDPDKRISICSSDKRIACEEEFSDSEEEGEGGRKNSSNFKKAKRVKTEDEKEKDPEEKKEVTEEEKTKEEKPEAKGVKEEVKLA
T1 sequence (Q00987 whole entry): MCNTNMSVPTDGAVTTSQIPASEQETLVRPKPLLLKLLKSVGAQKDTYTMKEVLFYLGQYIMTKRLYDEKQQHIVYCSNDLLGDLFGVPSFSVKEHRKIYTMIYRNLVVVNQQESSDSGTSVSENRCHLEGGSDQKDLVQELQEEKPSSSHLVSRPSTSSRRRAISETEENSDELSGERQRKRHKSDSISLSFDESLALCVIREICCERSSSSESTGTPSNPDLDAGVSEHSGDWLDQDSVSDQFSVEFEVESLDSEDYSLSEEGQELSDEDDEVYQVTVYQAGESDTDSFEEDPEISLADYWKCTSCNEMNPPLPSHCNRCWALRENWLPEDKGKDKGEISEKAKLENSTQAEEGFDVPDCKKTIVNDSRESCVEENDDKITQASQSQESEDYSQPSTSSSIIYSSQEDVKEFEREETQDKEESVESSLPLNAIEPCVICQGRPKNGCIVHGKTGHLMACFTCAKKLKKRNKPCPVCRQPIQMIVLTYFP
Protocol for A431 cells: (§1) The cytotoxicity assay was performed with MTT method as previously described ([73], [88], [89]).
Protocol for HCT116 cells: as §1
Protocol for MCF-7 cells: as §1

As to `O=C(COCC(=O)Nc1ccc([C@@H]2[C@H]3CSCN3[C@]3(C(=O)Nc4cc(Cl)ccc43)[C@H]2C(=O)c2ccccc2)cc1)NO` [7u, N-(4-((3R,6'S,7'R,7a'S)-6'-benzoyl-6-chloro-2-oxo-1',6',7',7a'-tetrahydro-3'H-spiro[indoline-3,5'-pyrrolo[1,2-c]thiazol]-7'-yl)phenyl)-2-(2-(hydroxyamino)-2-oxoethoxy)acetamide], the melting point was 167.1 to 168.5 °C. In addition, in the data set with HCT116 cells (setting [1]), the IC50 was 4.59 ± 0.91 µM. Also, the IC50 with MCF-7 cells (setting [2]) came out at 3.47 ± 0.92 µM. The inhibition at 1 µM on HDAC1 was 54%. At GST-tagged MDM2, this compound gave an inhibition at 1 µM of 61%. Also, the IC50 with A431 cells (setting [3]) worked out at 3.64 ± 0.56 µM.
Consider “N^1-(4-((3R,6'S,7'R,7a'S)-6-chloro-6'-(4-fluorobenzoyl)-2-oxo-1',6',7',7a'-tetrahydro-3'H-spiro[indoline-3,5'-pyrrolo[1,2-c]thiazol]-7'-yl)phenyl)-N^6-hydroxyadipamide [7x]”, for which the IC50 in the data set on HCT116 cells (setting [4]) was 3.45 ± 0.57 µM; in the data set with MCF-7 cells (setting [5]) it was 2.9 ± 0.56 µM; in the data set on A431 cells (setting [6]), 3.43 ± 0.73 µM. In addition, the “% enzyme inhibition HDAC” value on HDAC1 turned out to be 73%. Moreover, the “% enzyme inhibition MDM2” value at GST-tagged MDM2 came out at 62%.
Turning to `O=C(CCCCCCC(=O)Nc1ccc([C@@H]2[C@@H](c3ccccc3)N[C@]3(C(=O)Nc4cc(Cl)ccc43)[C@H]2C(=O)c2ccccc2)cc1)NO` [15a, N^1-(4-((3R,3'S,4'R,5'S)-3'-benzoyl-6-chloro-2-oxo-5'-phenylspiro[indoline-3,2'-pyrrolidin]-4'-yl)phenyl)-N^8-hydroxyoctanediamide], the melting point was in the range of 146.5 to 147.6 °C. Moreover, the IC50 in the data set on HCT116 cells (setting [1]) turned out to be 8.45 ± 2.44 µM. Further, in the data set with MCF-7 cells (setting [2]), the IC50 was found to be 5.71 ± 1.03 µM. Besides, the inhibition at 1 µM at HDAC1 stood at 61%. On GST-tagged MDM2, 1 µM produced 67% inhibition. Also, in the data set on A431 cells (setting [3]), the IC50 turned out to be 6.99 ± 0.92 µM.
Regarding `O=C(CCCCC(=O)N1CCC(C(=O)Nc2ccc([C@@H]3[C@H]4CSCN4[C@]4(C(=O)Nc5cc(Cl)ccc54)[C@H]3C(=O)c3ccccc3)cc2)CC1)NO` [11a, N-(4-((3R,6'S,7'R,7a'S)-6'-benzoyl-6-chloro-2-oxo-1',6',7',7a'-tetrahydro-3'H-spiro[indoline-3,5'-pyrrolo[1,2-c]thiazol]-7'-yl)phenyl)-1-(6-(hydroxyamino)-6-oxohexanoyl)piperidine-4-carboxamide], the melting point was in the range of 170.3 to 171.5 °C. In the data set with HCT116 cells (setting [1]), the IC50 worked out at 4.32 ± 0.9 µM. The IC50 in the data set on MCF-7 cells (setting [2]) turned out to be 4.48 ± 1.46 µM. On HDAC1, the inhibition at 1 µM is 70%. On GST-tagged MDM2, this compound came in with an inhibition at 1 µM of 62%. Besides, the IC50 in the data set on A431 cells (setting [3]) was 4.62 ± 0.78 µM.
`O=C(CCCCC(=O)Nc1ccc([C@@H]2[C@H]3CSCN3[C@]3(C(=O)Nc4cc(Cl)ccc43)[C@H]2C(=O)c2ccccc2)cc1)NO` [7r, N^1-(4-((3R,6'S,7'R,7a'S)-6'-benzoyl-6-chloro-2-oxo-1',6',7',7a'-tetrahydro-3'H-spiro[indoline-3,5'-pyrrolo[1,2-c]thiazol]-7'-yl)phenyl)-N^6-hydroxyadipamide] showed a melting point of 160.6 to 161.9 °C. For the same compound, on HDAC1, the inhibition at 1 µM came out at 55%. On GST-tagged MDM2, this compound displayed an inhibition at 1 µM of 61%.
On to `O=C(CCCCCCCCC(=O)Nc1ccc([C@@H]2[C@H]3CSCN3[C@]3(C(=O)Nc4ccccc43)[C@H]2C(=O)c2ccccc2)cc1)NO` [7q, N^1-(4-((3R,6'S,7'R,7a'S)-6'-benzoyl-2-oxo-1',6',7',7a'-tetrahydro-3'H-spiro[indoline-3,5'-pyrrolo[1,2-c]thiazol]-7'-yl)phenyl)-N^10-hydroxydecanediamide], for which the melting point was 131.9 to 132.1 °C. The inhibition at 1 µM at HDAC1 was 71%. Also, the inhibition at 1 µM on GST-tagged MDM2 stood at 42%.
Taken in the same sequence, the figures for `O=C(CCCCCCC(=O)Nc1ccc([C@@H]2[C@H]3CSCN3[C@]3(C(=O)Nc4ccc(F)cc43)[C@H]2C(=O)c2ccccc2)cc1)NO` [7c, N^1-(4-((3R,6'S,7'R,7a'S)-6'-benzoyl-5-fluoro-2-oxo-1',6',7',7a'-tetrahydro-3'H-spiro[indoline-3,5'-pyrrolo[1,2-c]thiazol]-7'-yl)phenyl)-N^8-hydroxyoctanediamide] were 144.3 to 145.7 °C, 68% and 51%.
For the compound `Nc1ccccc1NC(=O)CCCCCCC(=O)Nc1ccc([C@@H]2[C@H]3CSCN3[C@]3(C(=O)Nc4ccccc43)[C@H]2C(=O)c2ccccc2)cc1` [9b, N^1-(2-aminophenyl)-N^8-(4-((3R,6'S,7'R,7a'S)-6'-benzoyl-2-oxo-1',6',7',7a'-tetrahydro-3'H-spiro[indoline-3,5'-pyrrolo[1,2-c]thiazol]-7'-yl)phenyl)octanediamide], the melting point lay in the range of 131.7 to 132.9 °C. Further, on HDAC1, the inhibition at 1 µM turned out to be 45%. At GST-tagged MDM2, this compound came in with an inhibition at 1 µM of 45%.
Compound `COc1ccc2c(c1)[C@@]1(C(=O)N2)[C@@H](C(=O)c2ccccc2)[C@H](c2ccc(NC(=O)CCCCCCC(=O)NO)cc2)[C@H]2CSCN21` [7j, N^1-(4-((3R,6'S,7'R,7a'S)-6'-benzoyl-5-methoxy-2-oxo-1',6',7',7a'-tetrahydro-3'H-spiro[indoline-3,5'-pyrrolo[1,2-c]thiazol]-7'-yl)phenyl)-N^8-hydroxyoctanediamide] came in with a melting point of 134.9 to 136.2 °C. Also, the inhibition at 1 µM at HDAC1 came to 70%. The compound also registered an inhibition at 1 µM at GST-tagged MDM2 of 50%.
For the compound `O=C(CCCCCCC(=O)Nc1ccc([C@@H]2[C@H]3CSCN3[C@]3(C(=O)Nc4ccc(Br)cc43)[C@H]2C(=O)c2ccccc2)cc1)NO` [7e, N^1-(4-((3R,6'S,7'R,7a'S)-6'-benzoyl-5-bromo-2-oxo-1',6',7',7a'-tetrahydro-3'H-spiro[indoline-3,5'-pyrrolo[1,2-c]thiazol]-7'-yl)phenyl)-N^8-hydroxyoctanediamide], the melting point lay in the range of 146.8 to 148 °C. Moreover, on HDAC1, the inhibition at 1 µM is 72%. The compound further had an inhibition at 1 µM against GST-tagged MDM2 of 48%.
Turning to “N^1-(4-((3R,6'S,7'R,7a'S)-6-chloro-6'-(3-methoxybenzoyl)-2-oxo-1',6',7',7a'-tetrahydro-3'H-spiro[indoline-3,5'-pyrrolo[1,2-c]thiazol]-7'-yl)phenyl)-N^6-hydroxyadipamide [7w]”, the IC50 is 3.91 ± 0.84 µM in the data set on HCT116 cells (setting [4]), 3.77 ± 0.93 µM in the data set on MCF-7 cells (setting [5]) and 3.32 ± 0.68 µM with A431 cells (setting [6]). In addition, the “% enzyme inhibition HDAC” value at HDAC1 amounted to 69%. The “% enzyme inhibition MDM2” value at GST-tagged MDM2 came out at 60%.
The compound `O=C(CCCCCCC(=O)Nc1ccc([C@@H]2[C@H]3CSCN3[C@]3(C(=O)Nc4cc(Cl)ccc43)[C@H]2C(=O)c2ccccc2)cc1)NO` [compound 7f, N^1-(4-((3R,6'S,7'R,7a'S)-6'-benzoyl-6-chloro-2-oxo-1',6',7',7a'-tetrahydro-3'H-spiro[indoline-3,5'-pyrrolo[1,2-c]thiazol]-7'-yl)phenyl)-N^8-hydroxyoctanediamide] showed a melting point of 150.2 to 151.2 °C. Also, on HDAC1, the inhibition at 1 µM stood at 64%. The compound further returned an inhibition at 1 µM on GST-tagged MDM2 of 65%.
As for `O=C(CCCCCCC(=O)Nc1ccc([C@@H]2[C@H]3CSCN3[C@]3(C(=O)Nc4cc(Br)ccc43)[C@H]2C(=O)c2ccccc2)cc1)NO` [7g, N^1-(4-((3R,6'S,7'R,7a'S)-6'-benzoyl-6-bromo-2-oxo-1',6',7',7a'-tetrahydro-3'H-spiro[indoline-3,5'-pyrrolo[1,2-c]thiazol]-7'-yl)phenyl)-N^8-hydroxyoctanediamide], the melting point fell in the range of 149.8 to 152.1 °C. The inhibition at 1 µM at HDAC1 is 68%. The same compound displayed an inhibition at 1 µM on GST-tagged MDM2 of 59%.
The compound `COc1cccc(C(=O)[C@H]2[C@H](c3ccc(NC(=O)CCCCCCC(=O)NO)cc3)[C@H]3CSCN3[C@]23C(=O)Nc2ccccc23)c1` [7l, N^1-hydroxy-N^8-(4-((3R,6'S,7'R,7a'S)-6'-(3-methoxybenzoyl)-2-oxo-1',6',7',7a'-tetrahydro-3'H-spiro[indoline-3,5'-pyrrolo[1,2-c]thiazol]-7'-yl)phenyl)octanediamide] yielded a melting point of 121.6 to 122.8 °C. Moreover, on HDAC1, the inhibition at 1 µM came out at 62%. The inhibition at 1 µM at GST-tagged MDM2 came out at 44%.
On to `Nc1ccccc1NC(=O)CCCCCCC(=O)Nc1ccc([C@@H]2[C@H]3CSCN3[C@]3(C(=O)Nc4cc(Cl)ccc43)[C@H]2C(=O)c2ccccc2)cc1` [9d, N^1-(2-aminophenyl)-N^8-(4-((3R,6'S,7'R,7a'S)-6'-benzoyl-6-chloro-2-oxo-1',6',7',7a'-tetrahydro-3'H-spiro[indoline-3,5'-pyrrolo[1,2-c]thiazol]-7'-yl)phenyl)octanediamide], for which the melting point lay within 145.2 to 146.4 °C. The inhibition at 1 µM on HDAC1 came out at 55%. Moreover, at 1 µM the inhibition against GST-tagged MDM2 was 56%.
In the case of `O=C(CCCCCCC(=O)Nc1ccc([C@@H]2[C@H]3CCCN3[C@]3(C(=O)Nc4cc(Cl)ccc43)[C@H]2C(=O)c2ccccc2)cc1)NO` [7t, N^1-(4-((1'R,2'S,3R,7a'R)-2'-benzoyl-6-chloro-2-oxo-1',2',5',6',7',7a'-hexahydrospiro[indoline-3,3'-pyrrolizin]-1'-yl)phenyl)-N^8-hydroxyoctanediamide], the melting point lay within 143.4 to 144.5 °C. For the same compound, on HDAC1, the inhibition at 1 µM stood at 61%. The same compound displayed an inhibition at 1 µM on GST-tagged MDM2 of 61%.

(Values after paper PMC9386376, “Discovery of spirooxindole-derived small-molecule compounds as novel HDAC/MDM2 dual inhibitors and investigation of their anticancer activity” (Frontiers in Oncology, 2022).)
